Source: article PMC10388327, “Dual Piperidine-Based Histamine H3 and Sigma-1 Receptor Ligands in the Treatment of Nociceptive and Neuropathic Pain” (Journal of Medicinal Chemistry, 2023)
Structures can show the parent of a compound that is named as a salt.

Columns and labels:
mice [1] = test: oxaliplatin-induced neuropathy, von Frey test; type: in vivo; conditions: for pain threshold after single administration, early phase: 3 h after OXPT; for pain threshold after single administration, late phase: 7 days after OXPT
Description: The neuropathy manifests as a decrease in the pain threshold and can be observed in hours or in days after oxaliplatin administration, which is called the early or late phase of neuropathic pain, respectively. We tested the influence of compound 12 on tactile allodynia using the von Frey method 3 h and 7 days after the induction of neuropathy.[12]
Neuropathy was induced by the administration of a single dose (10 mg/kg) of oxaliplatin (OXPT) dissolved in a 5% glucose solution (Polfa Kutno, Poland). To assess the sensitivity to mechanical stimuli, the von Frey test was carried out using the electronic von Frey unit (Bioseb, France). The apparatus was supplied with a single flexible filament, which was used to apply increasing force (from 0 to 10 g) against the plantar surface of the hind paw of the mouse. […] The measurement was done before the OXPT administration and 3 h and 7 days afterward. The compounds were administrated to the animals with tactile allodynia observed as a statistically significant decrease in pain threshold. On the day of the experiment, each mouse was placed in an observation chamber with a wire mesh bottom and was allowed to habituate for 1 h. After the habituation period, the mouse pain threshold was tested three times alternately with at least 30 s gap between each measurement. The mean of these three consecutive measurements was taken as the baseline value. The mice with tactile allodynia were i.p. pretreated with the tested compound, and 30 min later, the animals were tested again according to the same procedure.[92]

[2] = parallel artificial membrane permeability assay (PAMPA); type: in vitro ADME; conditions: 100 μM in PBS pH 7.4, RT, read-out: Pe (permeability coefficient)
sigma-2 receptor (σ2R) = molecular target: T1, sigma-2 receptor (σ2R) (Rattus norvegicus, UniProt Q5U3Y7); test: σ2R radioligand binding ([3H]DTG); conditions: read-out: σ2R Ki [nM] x̄ [CI 95%]; mean [CI 95%]
T1 construct: The thawed membrane preparation of rat liver was incubated; from tissue; host or cells: Sprague-Dawley rat liver membranes
T1 sequence (Q5U3Y7 1-176): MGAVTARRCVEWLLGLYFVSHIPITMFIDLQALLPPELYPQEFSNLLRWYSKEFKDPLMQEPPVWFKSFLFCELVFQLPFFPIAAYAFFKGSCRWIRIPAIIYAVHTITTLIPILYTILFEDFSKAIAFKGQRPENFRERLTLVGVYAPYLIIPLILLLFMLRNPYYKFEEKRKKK

sigma-1 receptor (σ1R) [3] = molecular target: T2, sigma-1 receptor (σ1R) (Cavia porcellus, UniProt Q60492); test: σ1R radioligand binding ([3H](+)-pentazocine); set-up: species or system guinea pig; conditions: read-out: σ1R Ki [nM] x̄ [CI 95%]; mean [CI 95%]
T2 construct: The thawed membrane preparation of the guinea pig brain cortex was incubated; from tissue; host or cells: male Dunkin-Hartley guinea pig brain cortex membranes

sigma-1 receptor (σ1R) [4] = test: σ1R radioligand binding ([3H](+)-pentazocine); set-up: species or system guinea pig; conditions: ratio of σ2R Ki to σ1R Ki
mice [5] = test: capsaicin-induced nociception; type: in vivo
Description: The procedure used was similar to that described previously.[88],[89] The pain reaction was induced by the injection of 20 μL of capsaicin solution (1.6 μg/paw made in PBS) under the skin of the dorsal surface of the mice right hindpaw. The animals were observed individually in an observation chamber for 5 min following capsaicin injection. The amount of time spent licking the injected paw was recorded by means of the stopwatch and was considered as indicative of pain. The animals were pretreated with the vehicle (10 mL/kg, negative control) and investigated compound (10, 15, and 30 mg/kg).

CCI-exposed mice [6] = test: CCI of the sciatic nerve, tail flick test; type: in vivo, male albino Swiss CD-1 mice
Description: (§1) Behavioral assessment of 12 was performed 14 days after the sciatic nerve injury. Mice were randomly assigned to four treatment groups: vehicle-treated (i.p.) and 12-treated (5, 10, and 15 mg/kg, i.p.). Baseline measurements (basal) for all tests were performed before compound injections, and the results are presented as percentages of the maximal possible effect (% MPE). We observed a significant effect of the tested compound in the von Frey test at all tested time points (30 min: F(3, 26) = 12.38, p < 0,0001; 90 min: F(3, 26) = 12.65, p < 0.0001; 180 min: F(3, 26) = 6.464, p = 0.0020). […] We also observed a significant effect of treatment on the contralateral paw 90 min after injection (F(3, 26) = 5.741, p = 0.0037).
The model of chronic constriction injury (CCI) to the sciatic nerve was established according to Bennett and Xie.[94] The surgical method was performed under isoflurate anesthesia (2% isoflurane in 100% oxygen with a flow of 1.5 L/min).[95] […]
Tail flick latency was measured on the dorsal part of the tail at two-thirds of its length by applying a focused beam of light (thermal stimulus). The time interval between onset of the thermal stimulus and withdrawal of the tail from the beam was recorded; the cutoff latency was 9 s to prevent tissue damage.

[7] = serum metabolic stability
mice [8] = test: loperamide-induced antinociception (paw pressure, struggle response latency); type: in vivo, Female CD1 mice
CCI-exposed mice [9] = test: chronic constriction injury (CCI) of the sciatic nerve, von Frey test; type: in vivo, male albino Swiss CD-1 mice
Description: as §1
The model of chronic constriction injury (CCI) to the sciatic nerve was established according to Bennett and Xie.[94] The surgical method was performed under isoflurate anesthesia (2% isoflurane in 100% oxygen with a flow of 1.5 L/min).[95] Below the right hipbone, a small incision was performed, and three ligatures (4/0 silk) around the sciatic nerve were made (with 1 mm spacing) until a brief twitch in the respective hind limb was observed. All mice that underwent the CCI procedure developed hypersensitivity to mechanical and thermal stimuli. Behavioral tests were performed at day 14 after injury. Compound 12 was dissolved in 10% DMSO/10% (2-hydroxypropyl)-β-cyclodextrin/water and administered i.p. at doses 5, 10, and 15 mg/kg (injection volume 10 mL/kg of body weight). The control group received the vehicle (10% DMSO/10% (2-hydroxypropyl)-β-cyclodextrin/water).
Behavioral experiments were performed between 8:00 a.m. and 2:00 p.m. Across the experiments, we compared vehicle-treated mice with 12-treated animals. Experiments were performed 30, 90, and 180 min (von Frey test); 35, 95, and 185 min (cold plate test); and 40, 100, and 190 min (tail flick test) after the vehicle or 12 administration.
The von Frey test was used to measure mechanical hypersensitivity as described in a previous publication.[95] The animals were placed in cages with a wire net floor. The reaction (paw withdrawal, shaking, or licking) of the ipsilateral (Figure 15) and contralateral (Figure S33) paw of CCI-exposed mice to the mechanical stimulator (calibrated nylon monofilaments (0.6–6 g; Stoelting)) in serial increments was observed.

T2 sequence (Q60492 whole entry): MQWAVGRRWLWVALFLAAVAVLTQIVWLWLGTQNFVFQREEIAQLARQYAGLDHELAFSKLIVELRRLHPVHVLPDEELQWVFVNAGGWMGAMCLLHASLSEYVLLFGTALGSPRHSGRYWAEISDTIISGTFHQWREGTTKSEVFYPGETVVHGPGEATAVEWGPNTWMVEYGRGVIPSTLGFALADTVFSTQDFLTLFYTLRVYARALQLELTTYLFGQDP

N#Cc1ccc(-c2ccc(OCCCN3CCC(c4ccncc4)CC3)cc2)cc1 [Compound 12, 4′-(3-(4-(Pyridin-4-yl)piperidin-1-yl)propoxy)-[1,1′-biphenyl]-4-carbonitrile Oxalate]
pain threshold after single administration, early phase (mice [1]; 5 mg/kg i.p.): 88.6 % of the baseline
pain threshold after single administration, early phase (mice [1]; 10 mg/kg i.p.): 115.0 % of the baseline
pain threshold after single administration, late phase (mice [1]; 10 mg/kg i.p.): 99.8 % of the baseline
pain threshold after single administration, early phase (mice [1]; 15 mg/kg i.p.): 124.3 % of the baseline
pain threshold after single administration, late phase (mice [1]; 15 mg/kg i.p.): 123.7 % of the baseline
Papp at 5 h, 100 µM [2]: 12 ×10⁻⁶ cm/s
Ki (sigma-2 receptor (σ2R)): 10 nM
Ki (sigma-1 receptor (σ1R) [3]): 4.5 nM
σ2/σ1 ratio (sigma-1 receptor (σ1R) [4]): 2.2
effect on nociceptive response in capsaicin test (mice [5]; 10, 15 and 30 mg/kg): significantly decreased the paw licking or biting behavior
ED50 (mice [5]; Mus musculus, 5 min, 5 min after intraplantar capsaicin, read-out: ED50, capsaicin test): 10.3 mg/kg
analgesic effect, tail flick test (CCI-exposed mice [6]; 100 and 190 min after i.p. injection): only the 10 mg/kg dose had significant analgesic effects
analgesic effect, tail flick test (CCI-exposed mice [6]; 40 min after i.p. injection): significant analgesic action of 12 at 40 min (for doses 5 (p = 0.021) and 10 mg/kg (p < 0.0001))
serum stability assessment [7]: moderately stable ligand
half-life at 24 h ([7]; serum (made from plasma by clotting with calcium chloride)): 7.7 ± 1.4 h
in vivo σ1 receptor functional profile (mice [8]; concluded from PRE-084 reversal): σ1 receptor antagonists
effect on loperamide-induced antinociception (mice [8]; i.pl. with loperamide 4 mg/kg s.c., injected paw): dose-dependently (12.5–25 μg) increased the antinociceptive effect of loperamide at the injected paw
effect alone on struggle response latency (mice [8]; i.pl., S1RA 100 μg, 12 25 μg, 450 g pressure): did not have any effect per se
effect on contralateral paw, von Frey test (CCI-exposed mice [9]; 15 mg/kg, 30 and 180 min): reduced the withdrawal threshold 30 and 180 min after injection, although this effect was not statistically significant
effect on contralateral paw, von Frey test (CCI-exposed mice [9]; 15 mg/kg, 90 min): significant effect (p = 0.0056)
effect on contralateral paw, von Frey test (CCI-exposed mice [9]; 5 and 10 mg/kg, all time points): no effects of compound 12 (for doses 5 and 10 mg/kg) on tactile allodynia
analgesic effect, von Frey test, ipsilateral paw (CCI-exposed mice [9]; 90 and 180 min after i.p. injection): only at a dose of 10 mg/kg increased the withdrawal thresholds
analgesic effect, von Frey test, ipsilateral paw (CCI-exposed mice [9]; 30 min after i.p. injection, 5, 10, 15 mg/kg, day 14 after CCI): significant analgesic effects 30 min after injection of 5 (p < 0.0001) and 10 mg/kg (p = 0.0201)
